Measurements taken from PubChem BioAssay (NCI).
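A five-concentration, 48-hour dose response in 96-well plates underlies each endpoint, interpolated linearly between surrounding concentrations. TGI: concentration producing complete growth inhibition.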

Key:
Test in all cases: DTP human tumour cell line panel, 48 h
MOLT-4 leukemia = tested on: MOLT-4 leukemia
SK-OV-3 ovarian = tested on: SK-OV-3 ovarian
OVCAR-8 ovarian = tested on: OVCAR-8 ovarian
OVCAR-4 ovarian = tested on: OVCAR-4 ovarian
UO-31 renal = tested on: UO-31 renal
MDA-N = tested on: MDA-N
U251 CNS = tested on: U251 CNS
KM12 colon = tested on: KM12 colon
BT-549 breast = tested on: BT-549 breast
LOX IMVI melanoma = tested on: LOX IMVI melanoma

Row | Compound | TGI (MOLT-4 leukemia) | TGI (SK-OV-3 ovarian) | TGI (OVCAR-8 ovarian) | TGI (OVCAR-4 ovarian) | TGI (UO-31 renal) | TGI (MDA-N) | TGI (U251 CNS) | TGI (KM12 colon) | TGI (BT-549 breast) | TGI (LOX IMVI melanoma)
1 | CC1(C)CC(=O)C2=C(C1)c1c(ccc3ccccc13)NC2c1cn(Cc2ccc(Cl)cc2)c2ccccc12 (stereo not given) | > 100 µM | > 100 µM | > 100 µM | > 100 µM | > 100 µM | > 100 µM | > 100 µM | > 100 µM | > 100 µM | > 100 µM
2 | CC1=C2C(=O)[C@H]3[C@@H](CC=C4C[C@@H](O)CC[C@@]43C)[C@@H]2CC[C@]12O[C@@H]1C[C@H](C)CN[C@H]1[C@H]2C | > 100 µM | > 57.3 µM | > 69.1 µM | > 64.5 µM | > 54.3 µM | > 100 µM | > 55.5 µM | > 83.4 µM | > 100 µM | > 58.2 µM
3 | CC1(c2nc3cc(Cl)c(Cl)cc3[nH]2)CCC(CO)C(C)(C)O1 (stereo not given) | > 100 µM | > 100 µM | 61.4 µM | > 100 µM | 39.9 µM | > 100 µM | > 100 µM | 38.6 µM | 44.8 µM | > 100 µM
